Experimental data reported in patent US9085555B2, “Complement pathway modulators and uses thereof” (priority 2011, dated 2015).
Where a name gives a salt, the structure may show the parent alone.

Target: Factor D (Homo sapiens (Human), UniProt P00746)
Assay: biochemical
Format: biochemical
Conditions: read-out: IC50

Chain of Factor D (P00746 26-253): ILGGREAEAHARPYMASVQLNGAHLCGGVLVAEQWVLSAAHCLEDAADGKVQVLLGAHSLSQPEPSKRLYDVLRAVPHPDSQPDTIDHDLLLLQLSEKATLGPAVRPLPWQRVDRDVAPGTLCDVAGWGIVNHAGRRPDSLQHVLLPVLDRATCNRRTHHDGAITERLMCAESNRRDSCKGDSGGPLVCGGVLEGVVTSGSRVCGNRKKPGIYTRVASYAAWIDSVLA

SMILES | IC50
CC(=O)c1nn(CC(=O)N2C[C@H](F)[C@@H](O)[C@H]2C(=O)NC2(c3cccc(Cl)c3F)CC2)c2cnccc12 [Example 635, (2S,3S,4S)-1-[2-(3-Acetyl-pyrazolo[3,4-c]pyridin-1-yl)-acetyl]-4-fluoro-3-hydroxy-pyrrolidine-2-carboxylic acid [1-(3-chloro-2-fluoro-phenyl)-cyclopropyl]-amide formate] | 18 nM
CO[C@H]1[C@@H](C(=O)Nc2cccc(OC(F)(F)F)c2F)N(C(=O)Cn2nc(C(N)=O)c3cc(C)ncc32)C[C@@H]1F [Example 636, 1-{2-[(2S,3S,4S)-4-Fluoro-2-(2-fluoro-3-trifluoromethoxy-phenylcarbamoyl)-3-methoxy-pyrrolidin-1-yl]-2-oxo-ethyl}-5-methyl-1H-pyrazolo[3,4-c]pyridine-3-carboxylic acid amide triflate] | 13 nM
CCc1cc2c(C(N)=O)nn(CC(=O)N3C[C@H](F)[C@@H](OC)[C@H]3C(=O)Nc3cccc(OC(F)(F)F)c3F)c2cn1 [Example 637, 5-Ethyl-1-{2-[(2S,3S,4S)-4-fluoro-2-(2-fluoro-3-trifluoromethoxy-phenylcarbamoyl)-3-methoxy-pyrrolidin-1-yl]-2-oxo-ethyl}-1H-pyrazolo[3,4-c]pyridine-3-carboxylic acid amide triflate] | 9 nM
CO[C@H]1[C@@H](C(=O)Nc2cccc(OC(F)(F)F)c2F)N(C(=O)Cn2nc(C(C)=O)c3cc(OCc4ncccn4)ccc32)C[C@@H]1F [Example 638, (2S,3S,4S)-1-{2-[3-Acetyl-5-(pyrimidin-2-ylmethoxy)-indazol-1-yl]-acetyl}-4-fluoro-3-methoxy-pyrrolidine-2-carboxylic acid (2-fluoro-3-trifluoromethoxy-phenyl)-amide] | 5 nM
CC(=O)c1nn(CC(=O)N2[C@@H]3C[C@@H]3C[C@H]2C(=O)NCc2cccc(Cl)c2F)c2cc(C(=O)O)ccc12 [Example 639, 3-Acetyl-1-{2-[(1R,3S,5R)-3-(3-chloro-2-fluoro-benzylcarbamoyl)-2-aza-bicyclo[3.1.0]hex-2-yl]-2-oxo-ethyl}-1H-indazole-6-carboxylic acid] | 62 nM
CO[C@H]1[C@@H](C(=O)NCc2cccc(Cl)c2F)N(C(=O)Cn2nc(C(C)=O)c3ccc(C(=O)O)cc32)C[C@@H]1F [Example 640, 3-Acetyl-1-{2-[(2S,3S,4S)-2-(3-chloro-2-fluoro-benzylcarbamoyl)-4-fluoro-3-methoxy-pyrrolidin-1-yl]-2-oxo-ethyl}-1H-indazole-6-carboxylic acid] | 8 nM
CC(=O)c1cn(CC(=O)N2[C@@H]3C[C@@H]3C[C@H]2C(=O)N[C@H](C)c2cccc(Cl)c2F)c2cnccc12 [Example 641, (1R,3S,5R)-2-[2-(3-Acetyl-pyrrolo[2,3-c]pyridin-1-yl)-acetyl]-2-aza-bicyclo[3.1.0]hexane-3-carboxylic acid [(R)-1-(3-chloro-2-fluoro-phenyl)-ethyl]-amide] | 32 nM
CC(=O)c1nn(CC(=O)N2[C@@H]3C[C@@H]3C[C@H]2C(=O)N[C@H](CCN(C)C)c2cccc(Cl)c2F)c2ccccc12 [Example 642, (1R,3S,5R)-2-[2-(3-Acetyl-indazol-1-yl)-acetyl]-2-aza-bicyclo[3.1.0]hexane-3-carboxylic acid [(R)-1-(3-chloro-2-fluoro-phenyl)-3-dimethylamino-propyl]-amide] | 15 nM
CO[C@H]1[C@@H](C(=O)N[C@H](C)c2cccc(Cl)c2F)N(C(=O)Cn2nc(C(N)=O)c3cccnc32)C[C@@H]1F [Example 643, 1-(2-{(2S,3S,4S)-2-[(R)-1-(3-Chloro-2-fluoro-phenyl)-ethylcarbamoyl]-4-fluoro-3-methoxy-pyrrolidin-1-yl}-2-oxo-ethyl)-1H-pyrazolo[3,4-b]pyridine-3-carboxylic acid amide] | 25 nM
CC(=O)c1nc(CC(=O)N2[C@@H]3C[C@@H]3C[C@H]2C(=O)N[C@H](CO)c2cccc(Cl)c2F)n2ccccc12 [Example 644, (1R,3S,5R)-2-[2-(1-Acetyl-imidazo[1,5-a]pyridin-3-yl)-acetyl]-2-aza-bicyclo [3.1.0]hexane-3-carboxylic acid [(S)-1-(3-chloro-2-fluoro-phenyl)-2-hydroxy-ethyl]-amide] | 79 nM
CCC(=O)c1cn(CC(=O)N2[C@@H]3C[C@@H]3C[C@H]2C(=O)NCc2cccc(Cl)c2F)c2cnccc12 [Example 645, (1R,3S,5R)-2-[2-(3-Propionyl-pyrrolo[2,3-c]pyridin-1-yl)-acetyl]-2-aza-bicyclo [3.1.0]hexane-3-carboxylic acid 3-chloro-2-fluoro-benzylamide] | 132 nM
CC(=O)c1cn(CC(=O)N2[C@@H]3C[C@@H]3C[C@H]2C(=O)NCc2cccc(Cl)c2F)c2cnc(C)cc12 [Example 646, (1R,3S,5R)-2-[2-(3-Acetyl-5-methyl-pyrrolo[2,3-c]pyridin-1-yl)-acetyl]-2-aza-bicyclo [3.1.0]hexane-3-carboxylic acid 3-chloro-2-fluoro-benzylamide] | 12 nM
COc1cc2c(C(C)=O)nn(CC(=O)N3[C@@H]4C[C@@H]4C[C@H]3C(=O)NCc3cccc(Cl)c3F)c2cc1OC [Example 647, (1R,3S,5R)-2-[2-(3-Acetyl-5,6-dimethoxy-indazol-1-yl)-acetyl]-2-aza-bicyclo [3.1.0]hexane-3-carboxylic acid 3-chloro-2-fluoro-benzylamide] | 16 nM
CC(=O)c1cn(CC(=O)N2[C@@H]3C[C@@H]3C[C@H]2C(=O)NCc2cccc(Cl)c2F)c2ncncc12 [Example 649, (1R,3S,5R)-2-[2-(5-Acetyl-pyrrolo[2,3-d]pyrimidin-7-yl)-acetyl]-2-aza-bicyclo [3.1.0]hexane-3-carboxylic acid 3-chloro-2-fluoro-benzylamide] | 441 nM
NC(=O)c1nn(CC(=O)N2[C@@H]3C[C@@H]3C[C@H]2C(=O)NCc2cccc(Cl)c2F)c2ccncc12 [Example 650, 1-{2-[(1R,3S,5R)-3-(3-Chloro-2-fluoro-benzylcarbamoyl)-2-aza-bicyclo[3.1.0]hex-2-yl]-2-oxo-ethyl}-1H-pyrazolo[4,3-c]pyridine-3-carboxylic acid amide] | 22 nM
Cc1cc2c(C(N)=O)nn(CC(=O)N3[C@@H]4C[C@@H]4C[C@H]3C(=O)NCc3cccc(Cl)c3F)c2cn1 [Example 651, 1-{2-[(1R,3S,5R)-3-(3-Chloro-2-fluoro-benzylcarbamoyl)-2-aza-bicyclo[3.1.0]hex-2-yl]-2-oxo-ethyl}-5-methyl-1H-pyrazolo[3,4-c]pyridine-3-carboxylic acid amide] | 21 nM
O=C(CO)c1nn(CC(=O)N2[C@@H]3C[C@@H]3C[C@H]2C(=O)NCc2cccc(Cl)c2F)c2ccccc12 [Example 652, (1R,3S,5R)-2-{2-[3-(2-Hydroxy-acetyl)-indazol-1-yl]-acetyl}-2-aza-bicyclo [3.1.0]hexane-3-carboxylic acid 3-chloro-2-fluoro-benzylamide] | 19 nM
Cc1cc2c(cn1)c(C(N)=O)nn2CC(=O)N1[C@@H]2C[C@@H]2C[C@H]1C(=O)NCc1cccc(Cl)c1F [Example 653, 1-{2-[(1R,3S,5R)-3-(3-Chloro-2-fluoro-benzylcarbamoyl)-2-aza-bicyclo[3.1.0]hex-2-yl]-2-oxo-ethyl}-6-methyl-1H-pyrazolo[4,3-c]pyridine-3-carboxylic acid amide] | 47 nM
NC(=O)c1nn(CC(=O)N2[C@@H]3C[C@@H]3C[C@H]2C(=O)NCc2cccc(Cl)c2F)c2ncccc12 [Example 654, 1-{2-[(1R,3S,5R)-3-(3-Chloro-2-fluoro-benzylcarbamoyl)-2-aza-bicyclo[3.1.0]hex-2-yl]-2-oxo-ethyl}-1H-pyrazolo[3,4-b]pyridine-3-carboxylic acid amide] | 18 nM
CC(=O)c1cn(CC(=O)N2[C@@H]3C[C@@H]3C[C@H]2C(=O)NCc2cccc(Cl)c2F)c2nnccc12 [Example 655, (1R,3S,5R)-2-[2-(5-Acetyl-pyrrolo[2,3-c]pyridazin-7-yl)-acetyl]-2-aza-bicyclo [3.1.0]hexane-3-carboxylic acid 3-chloro-2-fluoro-benzylamide] | 91 nM
NC(=O)c1nn(CC(=O)N2CCCC[C@H]2C(=O)NCc2cccc(Cl)c2F)c2cnccc12 [Example 656, 1-{2-[(S)-2-(3-Chloro-2-fluoro-benzylcarbamoyl)-piperidin-1-yl]-2-oxo-ethyl}-1H-pyrazolo[3,4-c]pyridine-3-carboxylic acid amide] | 358 nM
NC(=O)c1nn(CC(=O)N2CCS[C@H]2C(=O)NCc2cccc(Cl)c2F)c2cnccc12 [Example 657, 1-{2-[(S)-2-(3-Chloro-2-fluoro-benzylcarbamoyl)-thiazolidin-3-yl]-2-oxo-ethyl}-1H-pyrazolo[3,4-c]pyridine-3-carboxylic acid amide] | 78 nM
CO[C@H]1[C@@H](C(=O)NCc2cccc(Cl)c2F)N(C(=O)Cn2cc(C(C)=O)c3cc(C)ncc32)C[C@@H]1F [Example 658, (2S,3S,4S)-1-[2-(3-Acetyl-5-methyl-pyrrolo[2,3-c]pyridin-1-yl)-acetyl]-4-fluoro-3-methoxy-pyrrolidine-2-carboxylic acid 3-chloro-2-fluoro-benzylamide formate] | 24 nM
CO[C@H]1[C@@H](C(=O)NC2(c3cccc(Cl)c3F)CC2)N(C(=O)Cn2nc(C(N)=O)c3cccnc32)C[C@@H]1F [Example 659, 1-(2-{(2S,3S,4S)-2-[1-(3-Chloro-2-fluoro-phenyl)-cyclopropylcarbamoyl]-4-fluoro-3-methoxy-pyrrolidin-1-yl}-2-oxo-ethyl)-1H-pyrazolo[3,4-b]pyridine-3-carboxylic acid amide] | 25 nM
CO[C@H]1[C@@H](C(=O)NC2(c3cccc(Cl)c3F)CC2)N(C(=O)Cn2nc(C(N)=O)c3cnccc32)C[C@@H]1F [Example 660, 1-(2-{(2S,3S,4S)-2-[1-(3-Chloro-2-fluoro-phenyl)-cyclopropylcarbamoyl]-4-fluoro-3-methoxy-pyrrolidin-1-yl}-2-oxo-ethyl)-1H-pyrazolo[4,3-c]pyridine-3-carboxylic acid amide] | 16 nM
CO[C@H]1[C@@H](C(=O)NCc2cccc(Cl)c2F)N(C(=O)Cn2nc(C(N)=O)c3cc(C)ncc32)C[C@@H]1F [Example 661, 1-{2-[(2S,3S,4S)-2-(3-Chloro-2-fluoro-benzylcarbamoyl)-4-fluoro-3-methoxy-pyrrolidin-1-yl]-2-oxo-ethyl}-5-methyl-1H-pyrazolo[3,4-c]pyridine-3-carboxylic acid amide] | 10 nM
